Results: PMC5556071, “ATR inhibition facilitates targeting of leukemia dependence on convergent nucleotide biosynthetic pathways” (Nature Communications, 2017)
“And” between values parts separate entries of the source, which are not always exact repeats. Equal entries are not always repeated.

Tested on: CEM cells
Assay: Non-targeted LC-MS metabolite profiling: percent [13C6]glucose labeling and relative metabolite levels
Type: cell-based, human
Conditions: CEM cells, 12 h following release from G1 arrest, replicates #1-#6
From the text: To further investigate the functions of dCK and ATR at the G1/S transition in CEM cells, a non-targeted liquid chromatography mass spectrometry (LC-MS) assay was used to determine the utilization of labeled [^13C6]glucose and [^13C9,^15N3]deoxycytidine, the main substrates for de novo and salvage nucleotide biosynthesis, respectively. Of the 166 metabolites identified in CEM cells treated with VE-822 and/or dCKi, 105 metabolites found in all four treatment groups contained glucose-derived ^13C atoms. […] These metabolites included intermediates such as rUTP, rCTP and rCDP in the de novo dCTP biosynthesis (Fig. 1d). […] However, several deoxyribonucleotides, including dCTP, were below the limit of detection of the non-targeted LC-MS approach, raising the concern that the sensitivity of this assay is not sufficient to measure the contribution of the salvage pathway or the ratio of de novo and salvage biosynthesis to these pools. To address this problem, a newly developed targeted MS assay was developed (Fig. 1e and Supplementary Fig. 3). In this assay, samples containing either extracted dNTPs or hydrolyzed DNA from labeled cells are separated by LC for detection by a triple quadrupole mass spectrometer using multiple reaction monitoring (LC-MS/MS-MRM). The first (Q1) and third (Q3) quadrupoles function as mass filters, while the second (Q2) quadrupole serves as a collision chamber (Fig. 1e). For instance, to profile the biosynthetic composition of deoxycytidine (dC) derived from hydrolyzed DNA or dCTP, an intact, protonated dC ion is selected in Q1, followed by fragmentation of the glycosidic bond, which releases protonated cytosine in Q2, that is filtered in Q3 and detected to generate an ion chromatogram. The peak areas for the ion chromatograms of salvage [^13C9,^15N3]dC (red trace), de novo [^13C5]dC (black trace, from [^13C6]glucose) and unlabeled dC (gray trace) (Fig. 1e) are used to determine the relative contributions of the de novo and salvage routes both to dCTP pools and to DNA-incorporated dCTP.
Cells were transferred into RPMI-1640 without glucose and supplemented with 10% dialyzed FBS (Gibco) containing the following labeled substrates: precursors for de novo [U-^13C6]glucose (Sigma-Aldrich, 389374) at 11 mM; precursors for purine salvage [U-^13C10,^15N5]dA (Cambridge Isotopes, CIL 3896), [^15N5]dA (Cambridge Isotopes, NLM-3895) and [^15N5]dG (Cambridge Isotopes, NLM-3899) at 5 µM or as indicated; and precursors for pyrimidine salvage: [U-^13C9,^15N3]dC (Silantes, 124603602) and [U-^13C10,^15N2]dT (Cambridge Isotopes, CNLM-3902) at 5 µM and [^15N2]orotate (Cambridge Isotopes, NLM-1048) at indicated concentrations. The cells were incubated for 12 h or as indicated before sample collection and processing. […]
Non-targeted LC-MS metabolic assays. 1 x 10^6 cells were washed with ice-cold 150 mM ammonium acetate twice before adding 1 mL of ice-cold 80% methanol with 10 nM norvaline as an internal standard. After vigorous vortexing, samples were centrifuged at maximum speed, the aqueous layer was transferred to a glass vial and the metabolites were dried under vacuum. Metabolites were resuspended in 50 μL 70% acetonitrile (ACN) and 5 μL of this solution used for the mass spectrometer-based analysis. The analysis was performed on a Q Exactive (Thermo Scientific) in polarity-switching mode with positive voltage 4.0 kV and negative voltage 4.0 kV. The mass spectrometer was coupled to an UltiMate 3000RSLC (Thermo Scientific) UHPLC system. Mobile phase A was 5 mM ammonium acetate (NH4AcO), pH 9.9, B was acetonitrile and the separation achieved on a Luna […] NH2 100 A column (150 × 2.0 mm, Phenomenex). The flow was 200 μL/min, and the gradient ran from 15% A to 95% A in 18 min, followed by an isocratic step for 9 min and re-equilibration for 7 min. Metabolites were detected and quantified as area under the curve based on retention time and accurate mass (≤ 3 p.p.m.) using the TraceFinder 3.1 (Thermo Scientific). Relative amounts of […]

[1] = metabolite CDP (KEGG C00112), listed as D
[2] = metabolite CDP-EtA (KEGG C00570), listed as D
[3] = metabolite CMP (KEGG C00055), listed as D
[4] = metabolite CTP (KEGG C00063), listed as D
[5] = metabolite Choline (KEGG C00114), listed as D
[6] = metabolite Cinnamic acid (KEGG C00423), listed as D
[7] = metabolite Cit (KEGG C00158), listed as D
[8] = metabolite Creatine (KEGG C00300), listed as D
[9] = metabolite Creatinine (KEGG C00791), listed as D
[10] = metabolite Cytosine (KEGG C00380), listed as D
[11] = metabolite DMG (KEGG C01026), listed as D
[12] = metabolite Dihydroorotate (KEGG C00337), listed as D
[13] = metabolite F16BP (KEGG C00354), listed as D
[14] = metabolite Folate (KEGG C00504), listed as D
[15] = metabolite Fru (KEGG C00095), listed as D
[16] = metabolite Fum (KEGG C00122), listed as D
[17] = metabolite G (KEGG C00387), listed as D
[18] = metabolite dG (KEGG C00330), listed as D

Compound: COc1ccc(-c2nc([C@@H](C)Sc3nc(N)cc(N)n3)c(C)s2)cc1OCCNS(C)(=O)=O [dCKi]
- Glucose labeling of CDP [1]: 77.96% and 72.97% and 80.28% and 0.44% and 79.17% and 76.50%
- Relative level of CDP [1]: 0.5 and 1.3 and 2.1 and 0.0678 and 0.334 and 0.7
- Glucose labeling of CDP-EtA [2]: 70.01% and 72.58% and 83.31% and 72.60% and 75.82% and 67.23%
- Relative level of CDP-EtA [2]: 0.9 (4×) and 1.4 and 1.0
- Glucose labeling of CMP [3]: 71.05% and 65.79% and 64.24% and 62.92% and 70.94% and 75.98%
- Relative level of CMP [3]: 1.0 and 0.663 and 1.8 and 0.2 and 0.366 and 0.8
- Glucose labeling of CTP [4]: 81.19% and 79.64% and 75.43% and 84.05% and 71.54% and 81.90%
- Relative level of CTP [4]: 0.345 and 0.9 and 1.2 and 0.0446 and 0.234 and 0.445
- Glucose labeling of Choline [5]: 0.00256% and 0.00252% and 0.00247% (2×) and 0.00241% and 0.00245%
- Relative level of Choline [5]: 1.1 and 1.3 (2×) and 0.842 and 0.8 (2×)
- Glucose labeling of Cinnamic acid [6]: 0.00% (5×) and 1.11e-14%
- Relative level of Cinnamic acid [6]: 1.2 and 1.3 and 1.6 and 0.8 (2×) and 0.7
- Glucose labeling of Cit [7]: 50.63% and 52.82% and 53.30% and 41.63% and 44.16% and 45.64%
- Relative level of Cit [7]: 0.8 and 1.3 and 1.4 and 0.367 and 0.6 and 0.7
- Glucose labeling of Citraconic acid (metabolite Citraconic acid (KEGG C02226)): 0.00%
- Relative level of Citraconic acid (metabolite Citraconic acid (KEGG C02226), listed as D): 1.1 and 1.0 (2×) and 1.3 and 0.645 and 0.9
- Glucose labeling of Citrulline (metabolite Citrulline (KEGG C00327)): 0.18%
- Relative level of Citrulline (metabolite Citrulline (KEGG C00327), listed as D): 2.2 and 0.259 and 0.529 and 0.8 and 0.4 and 0.527
- Glucose labeling of Creatine [8]: 0.000817% and 0.00101% and 2.36e-6% and 0.000311% and 0.000285% and 0.000183%
- Relative level of Creatine [8]: 1.0 (4×) and 1.1 (2×)
- Glucose labeling of Creatinine [9]: 0.000768% and 0.000756% and 0.000758% and 0.000811% and 0.00078% and 0.000884%
- Relative level of Creatinine [9]: 1.2 and 0.952 and 1.0 (2×) and 0.8 and 0.9
- Glucose labeling of Cystathionine (metabolite Cystathionine (KEGG C02291)): 0.26%
- Relative level of Cystathionine (metabolite Cystathionine (KEGG C02291), listed as D): 1.9 (2×) and 1.8 and 0.9 and 0.634 and 0.644
- Glucose labeling of Cytosine [10]: 0.000526% and 0.000773% and 0.000656% and 0.000291% and 0.000873% and 0.0323%
- Relative level of Cytosine [10]: 1.6 and 0.8 and 1.1 (2×) and 1.4 and 2.5
- Glucose labeling of DHAP (metabolite DHAP (KEGG C00111)): 100.00%
- Relative level of DHAP (metabolite DHAP (KEGG C00111)): 0.162
- Glucose labeling of DMG [11]: 0.05% and 0.06% and 0.000349% and 0.02% and 0.0219% and 0.03%
- Relative level of DMG [11]: 1.0 (2×) and 1.3 (2×) and 1.4 and 1.1
- Glucose labeling of Dihydroorotate [12]: 2.31% and 4.79% and 3.17% and 1.21% and 1.28% and 0.88%
- Relative level of Dihydroorotate [12]: 1.8 and 2.4 and 1.6 and 0.556 and 0.665 and 0.641
- Glucose labeling of F16BP [13]: 45.03% and 62.70% and 85.32% and 37.47% and 50.53% and 49.36%
- Relative level of F16BP [13]: 0.184 and 0.186 and 0.7 and 0.137 and 0.132 and 0.115
- Glucose labeling of Folate [14]: 100.00% and 0.00% (4×) and 1.11e-14%
- Relative level of Folate [14]: 1.8 and 6.1 and 0.8 and 0.376 and 0.9
- Glucose labeling of Fru [15]: 17.52% and 38.15% and 34.20% and 21.41% and 18.03% and 26.54%
- Relative level of Fru [15]: 1.5 and 0.6 and 0.8 and 1.0 and 1.4 and 0.9
- Glucose labeling of Fum [16]: 15.19% and 16.91% and 18.53% and 8.92% and 13.71% and 14.45%
- Relative level of Fum [16]: 0.9 and 1.0 and 1.4 and 0.443 and 0.654 and 0.7
- Glucose labeling of G [17]: 100.00% (3×) and 0.55% (3×)
- Relative level of G [17]: 1.4 and 0.8 and 0.9
- Glucose labeling of dATP (metabolite dATP (KEGG C00131)): 100.00%
- Relative level of dATP (metabolite dATP (KEGG C00131), listed as D): 0.743 and 1.0
- Glucose labeling of dCTP (metabolite dCTP (KEGG C00458)): 100.00%
- Relative level of dCTP (metabolite dCTP (KEGG C00458), listed as D): 1.0 and 0.8 and 1.2
- Glucose labeling of dG [18]: 0.40% and 0.52% and 0.55% and 0.48% and 0.47% and 0.42%
- Relative level of dG [18]: 1.5 and 0.9 (2×) and 1.1 and 0.8 (2×)
- Glucose labeling of dGDP (metabolite dGDP (KEGG C00361)): 100.00%
- Relative level of dGDP (metabolite dGDP (KEGG C00361)): 0.0
- Glucose labeling of dTMP (metabolite dTMP (KEGG C00364)): 100.00%
- Relative level of dTMP (metabolite dTMP (KEGG C00364), listed as D): 1.6 (2×) and 1.0 and 2.4
- Glucose labeling of dTTP (metabolite dTTP (KEGG C00459)): 100.00%
- Relative level of dTTP (metabolite dTTP (KEGG C00459), listed as D): 1.6 and 3.4 and 1.3
- Glucose labeling, Lys: 0.00%
- Glucose labeling, NAD+: 0.00%
- Glucose labeling, Nicotinamide: 0.00%
- Glucose labeling, P-Creatine: 0.0737%
- Glucose labeling, P-EtA: 0.0123%
- Glucose labeling, PEP: 100.00%
- Glucose labeling, Phe: 0.00%
- Glucose labeling, Pipecolate: 0.00%
- Glucose labeling, Pyr: 100.00%
- Glucose labeling, Thr (C00188): 0.00%
- Glucose labeling, Trigonelline (C01004): 0.00%
